Reference: PubChem BioAssay AID264 (DTP/NCI, 2004)
Values joined by “and” are separate entries in the source; they are usually repeats but may differ in a detail not shown here. Equal values may be shown once. Inconclusive results are not listed.

Test system: nude mice, LX-1 lung xenograft intrarenal, tumor weight T/C
Test: NCI In Vivo Anticancer Drug Screen. Data for tumor model Human Lung LX-1 Xenograft (intrarenal inoculation) in NU/NU Swiss (nude) mice
Details: endpoint: mean tumor weight change, higher = larger tumour
Procedure, shortened: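 Readout: T/C, i.e. treated-group tumor measurement over vehicle-control measurement. Mice bearing transplantable tumors were dosed with compound or vehicle.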

[1] = dose: 100.0 mg/kg/injection, schedule: Q04DX003 (sc), vehicle: saline with Tween-80
[2] = dose: 400.0 mg/kg/injection, schedule: Q04DX003 (sc), vehicle: saline with Tween-80
[3] = dose: 800.0 mg/kg/injection, schedule: Q04DX003 (sc), vehicle: saline with Tween-80
[4] = dose: 75.0 mg/kg/injection, schedule: Q04DX003 (sc), vehicle: saline with Tween-80
[5] = dose: 150.0 mg/kg/injection, schedule: Q04DX003 (sc), vehicle: saline with Tween-80
[6] = dose: 12.5 mg/kg/injection, schedule: Q01DX010 (sc), vehicle: saline
[7] = dose: 25.0 mg/kg/injection, schedule: Q01DX010 (sc), vehicle: saline
[8] = dose: 50.0 mg/kg/injection, schedule: Q04DX003 (sc), vehicle: saline with Tween-80
[9] = dose: 100.0 mg/kg/injection, schedule: Q04DX003 (sc), vehicle: saline
[10] = dose: 200.0 mg/kg/injection, schedule: Q04DX003 (sc), vehicle: saline

For `Nc1nc2ccc(NCc3ccc(C(=O)NC(CCC(=O)O)C(=O)O)cc3)cc2c(=O)[nH]1` (stereo not drawn), the T/C [1] was 94 % of control, the T/C (dose: 200.0 mg/kg/injection, schedule: Q04DX003 (sc), vehicle: saline with Tween-80) was 83 % of control and the T/C [2] was 109 % of control. The T/C [3] was 63 % of control.
In the case of `COc1ccc([I+]c2cccc(Cl)c2)cc1Cl`, the T/C [4] is reported as 93 % of control, the T/C [5] is reported as 86 % of control and the T/C (dose: 300.0 mg/kg/injection, schedule: Q04DX003 (sc), vehicle: saline with Tween-80) is reported as 85 % of control. The T/C (dose: 600.0 mg/kg/injection, schedule: Q04DX003 (sc), vehicle: saline with Tween-80) was 74 % of control and the T/C (dose: 1200.0 mg/kg/injection, schedule: Q04DX003 (sc), vehicle: saline with Tween-80) was 83 % of control.
For `COC(=O)C(N)Cc1ccc(O)c(O)c1` (stereo not drawn), the T/C (dose: 300.0 mg/kg/injection, schedule: Q04DX003 (sc), vehicle: saline) was 118 % of control, the T/C (dose: 600.0 mg/kg/injection, schedule: Q04DX003 (sc), vehicle: saline) was 108 % of control and the T/C (dose: 1200.0 mg/kg/injection, schedule: Q04DX003 (sc), vehicle: saline) was 106 % of control. For the same compound, the T/C (dose: 2400.0 mg/kg/injection, schedule: Q04DX003 (sc), vehicle: saline) was 108 % of control.
For `ClCCCN1CCCCC1CCl` (stereo not drawn), the T/C (dose: 12.5 mg/kg/injection, schedule: Q04DX003 (sc), vehicle: saline) was 88 % of control and the T/C (dose: 25.0 mg/kg/injection, schedule: Q04DX003 (sc), vehicle: saline) was 71 % of control.
With `[N-]=[N+]=CC(=O)CCC(N)C(=O)O` (stereo not drawn) the T/C (dose: 0.05 mg/kg/injection, schedule: Q01DX010 (sc), vehicle: saline) was 91 % of control, the T/C (dose: 0.37 mg/kg/injection, schedule: Q01DX010 (sc), vehicle: saline) was 12 % of control and the T/C (dose: 0.75 mg/kg/injection, schedule: Q01DX010 (sc), vehicle: saline) was -28 % of control.
For `CN=C(N)N/N=C(\C)c1ccc2oc3ccc(/C(C)=N/NC(N)=NC)cc3c2c1`, the T/C [4] was 89 % of control and the T/C [5] was 65 % of control.
`Cc1cc(NCCCN(C)C)c2ccc3c(ccc4c(NCCCN(C)C)cc(C)nc43)c2n1` was tested, and the T/C (dose: 9.38 mg/kg/injection, schedule: Q04DX003 (sc), vehicle: saline with Tween-80) was 86 % of control and the T/C (dose: 18.75 mg/kg/injection, schedule: Q04DX003 (sc), vehicle: saline with Tween-80) was 82 % of control.
`O=c1n(CC2CO2)c(=O)n(CC2CO2)c(=O)n1CC1CO1` (stereo not drawn) was tested, and the T/C [6] was 65 % of control, the T/C [7] was 56 % of control and the T/C (dose: 25.0 mg/kg/injection, schedule: Q04DX003 (sc), vehicle: saline with Tween-80) was 94 % of control. For the same compound, the T/C [8] was 100 % of control.
In the case of `CO[C@H]1Nc2c(ccc(C)c2O)C(=O)N2C=C(/C=C/C(N)=O)C[C@@H]12`, the T/C (dose: 0.25 mg/kg/injection, schedule: Q04DX003 (sc), vehicle: saline + alcohol) is reported as 48 % of control, the T/C (dose: 0.5 mg/kg/injection, schedule: Q04DX003 (sc), vehicle: saline + alcohol) is reported as 75 % of control and the T/C (dose: 1.0 mg/kg/injection, schedule: Q04DX003 (sc), vehicle: saline + alcohol) is reported as 115 % of control. The T/C (dose: 2.0 mg/kg/injection, schedule: Q04DX003 (sc), vehicle: saline + alcohol) was 39 % of control.
`O=C1NC(=O)C2C3C=CC(C12)C1C2C(=O)NC(=O)C2C31` (stereo not drawn) was tested, and the T/C [1] was 123 % of control, the T/C [2] was 84 % of control and the T/C [3] was 75 % of control. For the same compound, the T/C (dose: 1600.0 mg/kg/injection, schedule: Q04DX003 (sc), vehicle: saline with Tween-80) was 105 % of control.
`C=C1N(C)c2ccccc2C1(C)C` was tested, and the T/C [8] was 80 % of control and the T/C [1] was 76 % of control.
With `C[n+]1c(/C=C\C=C\N2CCCCC2)sc2ccccc21` the T/C (dose: 1.5 mg/kg/injection, schedule: Q04DX003 (sc), vehicle: Klucel (hydroxypropylcellulose) (HPC)) was 52 % of control and the T/C (dose: 3.0 mg/kg/injection, schedule: Q04DX003 (sc), vehicle: Klucel (hydroxypropylcellulose) (HPC)) was 83 % of control.
For `O=P1(N(CCCl)CCCl)NCCCO1` (stereo not drawn), the T/C (dose: 3.13 mg/kg/injection, schedule: Q01DX010 (sc), vehicle: saline) was 76 % of control, the T/C (dose: 6.25 mg/kg/injection, schedule: Q01DX010 (ip), vehicle: saline) was 48 % of control and the T/C (dose: 6.25 mg/kg/injection, schedule: Q01DX010 (sc), vehicle: saline) was 85 % of control. For the same compound, the T/C (dose: 12.5 mg/kg/injection, schedule: Q01DX010 (ip), vehicle: saline) was 29 % of control, the T/C (dose: 20.8 mg/kg/injection, schedule: Q04DX003 (ip), vehicle: saline) was 151 % of control and the T/C (dose: 25.0 mg/kg/injection, schedule: Q01DX010 (ip), vehicle: saline) was 56 % of control. For the same compound, the T/C (dose: 41.66 mg/kg/injection, schedule: Q04DX003 (ip), vehicle: saline) was 51 % of control, the T/C (dose: 41.66 mg/kg/injection, schedule: Q04DX003 (sc), vehicle: saline) was 44 % of control and the T/C (dose: 50.0 mg/kg/injection, schedule: Q04DX003 (sc), vehicle: suspension in saline) was 87 % of control and 92 % of control. For the same compound, the T/C (dose: 83.33 mg/kg/injection, schedule: Q04DX003 (sc), vehicle: saline) was 20 % of control, the T/C [9] was 28 % of control and the T/C (dose: 100.0 mg/kg/injection, schedule: Q04DX003 (sc), vehicle: suspension in saline) was 70 % of control and 90 % of control. The T/C [10] was 13 % of control and the T/C (dose: 200.0 mg/kg/injection, schedule: Q04DX003 (sc), vehicle: suspension in saline) was 42 % of control.
In the case of `CC(=O)OCC1OC(OC(C)=O)C(NC(=O)N(CCCl)N=O)C(OC(C)=O)C1OC(C)=O` (stereo not drawn), the T/C (dose: 12.0 mg/kg/injection, schedule: Q04DX003 (sc), vehicle: Klucel (hydroxypropylcellulose) (HPC)) is reported as 36 % of control and the T/C (dose: 24.0 mg/kg/injection, schedule: Q04DX003 (sc), vehicle: Klucel (hydroxypropylcellulose) (HPC)) is reported as 25 % of control.
`O=C(O)c1c2c(nc3ccccc13)Cc1ccccc1-2` was tested, and the T/C (dose: 100.0 mg/kg/injection, schedule: Q01DX010 (sc), vehicle: water) was 39 % of control and the T/C (dose: 200.0 mg/kg/injection, schedule: Q01DX010 (sc), vehicle: water) was 33 % of control.
`CC(=O)Oc1ccc[nH]c1=O` was tested, and the T/C [2] was 87 % of control and the T/C [3] was 91 % of control.
With `CNNCc1ccc(C(=O)NC(C)C)cc1` the T/C (dose: 166.66 mg/kg/injection, schedule: Q04DX003 (ip), vehicle: saline) was -73 % of control, the T/C (dose: 333.33 mg/kg/injection, schedule: Q04DX003 (ip), vehicle: saline) was -64 % of control and the T/C (dose: 666.65 mg/kg/injection, schedule: Q04DX003 (ip), vehicle: saline) was -73 % of control.
In the case of `c1ccc([C@H]2CN3CCSC3=N2)cc1`, the T/C (dose: 30.0 mg/kg/injection, schedule: Q04DX003 (sc), vehicle: saline) is reported as 103 % of control and the T/C (dose: 60.0 mg/kg/injection, schedule: Q04DX003 (sc), vehicle: saline) is reported as 121 % of control.
`CC(=O)CC(C)=O.CC(=O)CC(C)=O.O=N[O-].O=N[O-].[Co]` was tested, and the T/C [4] was 114 % of control.
For `C/C=C1\C[C@@H]2C(OC)Nc3cc(O)c(OC)cc3C(=O)N2C1` (stereo partly drawn), the T/C (dose: 0.5 mg/kg/injection, schedule: Q04DX003 (sc), vehicle: saline) was 93 % of control, the T/C (dose: 1.0 mg/kg/injection, schedule: Q04DX003 (sc), vehicle: saline) was 111 % of control and the T/C (dose: 2.0 mg/kg/injection, schedule: Q04DX003 (sc), vehicle: saline) was 107 % of control. For the same compound, the T/C (dose: 4.0 mg/kg/injection, schedule: Q04DX003 (sc), vehicle: saline) was 96 % of control.
In the case of `COc1cc2c(c(OC)c1OC)-c1c(cc3c(c1OC)OCO3)CC(C)C(C)(O)C2OC(=O)c1ccccc1` (stereo not drawn), the T/C (dose: 300.0 mg/kg/injection, schedule: Q04DX003 (sc), vehicle: saline + alcohol) is reported as 65 % of control, the T/C (dose: 600.0 mg/kg/injection, schedule: Q04DX003 (sc), vehicle: saline + alcohol) is reported as 107 % of control and the T/C (dose: 1200.0 mg/kg/injection, schedule: Q04DX003 (sc), vehicle: saline + alcohol) is reported as 108 % of control. The T/C (dose: 2400.0 mg/kg/injection, schedule: Q04DX003 (sc), vehicle: saline + alcohol) was 77 % of control.
In the case of `CNC(=O)ON(C(C)=O)C(=O)NC`, the T/C [6] is reported as 109 % of control and the T/C [7] is reported as 102 % of control.
In the case of `c1cnc2ncncc2n1`, the T/C [8] is reported as 150 % of control and the T/C [1] is reported as 81 % of control.
For `O=[N+]([O-])O.[Ga]`, the T/C [9] was 92 % of control, the T/C [10] was 86 % of control and the T/C (dose: 400.0 mg/kg/injection, schedule: Q04DX003 (sc), vehicle: saline) was 86 % of control. The T/C (dose: 800.0 mg/kg/injection, schedule: Q04DX003 (sc), vehicle: saline) was 83 % of control.
For `C[Si](C)(C)OSc1ccccc1[N+](=O)[O-]`, the T/C (dose: 300.0 mg/kg/injection, schedule: Q04DX003 (sc), vehicle: Klucel (hydroxypropylcellulose) (HPC)) was 150 % of control, the T/C (dose: 600.0 mg/kg/injection, schedule: Q04DX003 (sc), vehicle: Klucel (hydroxypropylcellulose) (HPC)) was 151 % of control and the T/C (dose: 2400.0 mg/kg/injection, schedule: Q04DX003 (sc), vehicle: Klucel (hydroxypropylcellulose) (HPC)) was 123 % of control.
